In ChEMBL document CHEMBL1151858, “4-Piperidines and 3-pyrrolidines as dual serotonin and noradrenaline reuptake inhibitors: design, synthesis and structure-activity relationships” (Bioorg Med Chem Lett, 2009):

Tests used:
[1] = in vitro; details: human, liver microsomes
[2] = Octanol-water distribution coefficient, log D at pH 7.4; type: physicochemical
[3] = Volume of distribution in rat at 5 mg/kg, iv administered as single dose; type: ADME, organism-based; parameters: dose 5 mg/kg, route intravenous; details: in vivo
[4] = Elimination half life in rat at 5 mg/kg, iv administered as single dose; type: ADME, organism-based; parameters: dose 5 mg/kg, route intravenous; details: in vivo, read-out: beta t1/2 (converted)
[5] = Plasma clearance in rat at 5 mg/kg, iv administered as single dose; type: ADME, organism-based; parameters: dose 5 mg/kg, route intravenous

Row | Compound | half-life [1] | logD [2] | Vd [3] | half-life [4] | clearance [5]
1 | Cc1ccc(C(Oc2cccc(Cl)c2Cl)C2CCNCC2)cn1 (centres undefined) | > 2 h | – | – | – | –
2 | Clc1cccc(OC(c2ccccn2)[C@H]2CCNC2)c1Cl (some centres undefined) | > 2 h | 0.9 | – | – | –
3 | Clc1cccc(OC(c2cccnc2)C2CCNCC2)c1Cl (single isomer, unassigned; enantiomer 1) | > 2 h | 1.2 | 33 L/kg | 2 h | 180 mL/min/kg
4 | CNCC[C@H](Oc1cccc2ccccc12)c1cccs1 [DULOXETINE] | > 2 h | – | – | – | –
